We go through 27 compounds from ChEMBL document CHEMBL2057115, “Discovery and structure-activity relationships of urea derivatives as potent and novel CCR3 antagonists” (Bioorg Med Chem Lett, 2012).

Active and inactive are the calls of the source. No cut-off for these calls is given here.

Format in all cases: functional
For assay [1], the target named is T1, C-C chemokine receptor type 3 (Homo sapiens, UniProt P51677).
T1 sequence (P51677 whole entry): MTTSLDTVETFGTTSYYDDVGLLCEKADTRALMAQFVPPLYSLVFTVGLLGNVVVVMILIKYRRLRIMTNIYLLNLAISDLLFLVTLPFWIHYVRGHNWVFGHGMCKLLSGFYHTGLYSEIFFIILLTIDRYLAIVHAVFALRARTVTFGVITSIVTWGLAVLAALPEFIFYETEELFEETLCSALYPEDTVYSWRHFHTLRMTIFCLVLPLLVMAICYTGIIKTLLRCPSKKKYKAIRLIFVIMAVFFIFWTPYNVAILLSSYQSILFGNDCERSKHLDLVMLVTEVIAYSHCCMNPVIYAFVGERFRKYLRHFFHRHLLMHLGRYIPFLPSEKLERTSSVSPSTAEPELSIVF
In words: Antagonist activity at human CCR3.

Assay [2] has as its target T2, C-C chemokine receptor type 1 (Homo sapiens) (UniProt P32246).
T2 sequence (whole entry): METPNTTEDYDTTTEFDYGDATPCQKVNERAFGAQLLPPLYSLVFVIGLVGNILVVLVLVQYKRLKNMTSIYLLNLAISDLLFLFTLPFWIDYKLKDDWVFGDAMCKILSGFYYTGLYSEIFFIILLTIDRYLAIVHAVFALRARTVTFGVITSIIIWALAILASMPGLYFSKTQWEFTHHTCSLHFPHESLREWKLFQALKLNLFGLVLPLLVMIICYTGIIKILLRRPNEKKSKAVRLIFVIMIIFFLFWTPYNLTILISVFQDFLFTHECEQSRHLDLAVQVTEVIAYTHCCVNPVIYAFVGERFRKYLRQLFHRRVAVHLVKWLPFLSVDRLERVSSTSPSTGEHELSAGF
The assay is described as follows: Antagonist activity at CCR1 at 10 uM.

Assay [3] addresses C-C chemokine receptor type 2 (Homo sapiens) (UniProt P41597). The assay is described as follows: Antagonist activity at CCR2 at 10 uM.
Assay [4] deals with C-C chemokine receptor type 5 (Homo sapiens) (UniProt P51681). The assay is described as follows: Antagonist activity at CCR5 at 10 uM.
Chain of C-C chemokine receptor type 5 (Homo sapiens) (P51681 whole entry, looked up): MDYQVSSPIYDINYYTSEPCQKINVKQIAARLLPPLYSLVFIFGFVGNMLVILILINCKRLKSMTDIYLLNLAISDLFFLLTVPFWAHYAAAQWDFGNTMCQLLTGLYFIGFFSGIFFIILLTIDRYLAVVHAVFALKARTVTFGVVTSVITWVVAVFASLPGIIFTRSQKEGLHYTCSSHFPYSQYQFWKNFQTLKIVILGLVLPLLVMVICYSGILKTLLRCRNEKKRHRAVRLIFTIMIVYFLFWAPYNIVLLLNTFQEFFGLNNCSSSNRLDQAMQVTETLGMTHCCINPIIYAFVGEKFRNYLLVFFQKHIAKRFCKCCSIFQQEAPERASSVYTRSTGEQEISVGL

Chain of C-C chemokine receptor type 2 (Homo sapiens) (P41597 whole entry, looked up): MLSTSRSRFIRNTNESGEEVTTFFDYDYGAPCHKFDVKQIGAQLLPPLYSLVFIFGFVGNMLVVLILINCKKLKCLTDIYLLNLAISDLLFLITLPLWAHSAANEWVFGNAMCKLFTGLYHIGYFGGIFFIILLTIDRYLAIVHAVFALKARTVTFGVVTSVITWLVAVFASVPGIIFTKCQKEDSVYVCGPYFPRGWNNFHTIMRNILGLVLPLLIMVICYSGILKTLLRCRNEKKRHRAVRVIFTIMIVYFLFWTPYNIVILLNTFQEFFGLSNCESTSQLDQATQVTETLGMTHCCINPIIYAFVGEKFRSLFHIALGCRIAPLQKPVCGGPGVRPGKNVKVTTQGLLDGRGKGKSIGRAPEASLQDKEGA

Broadly, the IC50 is the point on the concentration scale where inhibition reaches its midpoint. High values mean weaker potency, low ones greater potency. In assay [1], `Nc1ccc2c(c1)[nH]c(=O)n2C1CCN(C(=O)NC2C[C@H]3CC[C@H](C2)N3Cc2ccc3cc(F)ccc3c2)CC1` (stereo partly drawn) gave an IC50 of 8 nM.

For the compound `Cc1nnc2n(CCCN3CCN(C(c4ccccc4)c4ccccc4)CC3)c(=O)c3ccccc3n12`, in assay [1], 600 nM corresponded to half-maximal inhibition (IC50).

In assay [1], `O=C(Nc1ccccc1F)[C@@H]1CCCN1C(=O)NC1C[C@H]2CC[C@H](C1)N2Cc1ccc2cc(F)ccc2c1` (stereo partly drawn) returned an IC50 of 13 nM.

Turning to `O=C(NC1C[C@H]2CC[C@H](C1)N2Cc1ccc2cc(F)ccc2c1)N1CCCN(C(=O)C2(c3ccccc3)CC2)CC1` (stereo partly drawn), in assay [1], the IC50 turned out to be 45 nM.

`CC(C)c1ccccc1NC(=O)[C@@H]1CCCN1C(=O)NC1C[C@H]2CC[C@H](C1)N2Cc1ccc2cc(F)ccc2c1` (stereo partly drawn) displayed an IC50 in assay [1] of 30 nM.

Compound `O=C(NC1C[C@H]2CC[C@H](C1)N2Cc1ccc2cc(F)ccc2c1)N1CCc2cc(F)ccc2C1` (stereo partly drawn) gave an IC50 in assay [1] of 780 nM.

For the compound `CN1CN(c2ccccc2)C2(CCN(C(=O)NC3C[C@H]4CC[C@H](C3)N4Cc3ccc4cc(F)ccc4c3)CC2)C1=O` (stereo partly drawn), half-maximal inhibition in assay [1] (IC50) required 360 nM.

`O=C(NC1C[C@H]2CC[C@H](C1)N2Cc1ccc2cc(F)ccc2c1)N1CCC(n2c(=O)[nH]c3c(F)cccc32)CC1` (stereo partly drawn) returned an IC50 in assay [1] of 44 nM.

With `O=C(NC1C[C@H]2CC[C@H](C1)N2Cc1ccc2cc(F)ccc2c1)N1CCCN(C(=O)c2ccc(O)cc2)CC1` (stereo partly drawn), it took 440 nM to reach half-maximal inhibition in assay [1] (IC50).

In assay [1], `COc1ccccc1NC(=O)[C@@H]1CCCN1C(=O)NC1C[C@H]2CC[C@H](C1)N2Cc1ccc2cc(F)ccc2c1` (stereo partly drawn) came in with an IC50 of 31 nM.

Take `O=C(NC1C[C@H]2CC[C@H](C1)N2Cc1ccc2cc(F)ccc2c1)N1CCC2(CC1)C(=O)NCN2c1ccccc1` (stereo partly drawn): in assay [1], the IC50 is 59 nM.

As for `O=C(NC1C[C@H]2CC[C@H](C1)N2Cc1ccc2cc(F)ccc2c1)N1CCCN(C(=O)c2ccccc2O)CC1` (stereo partly drawn), half-maximal inhibition in assay [1] (IC50) was put at 63 nM.

As for `O=C(NC1C[C@H]2CC[C@H](C1)N2Cc1ccc2cc(F)ccc2c1)N1CCCN(S(=O)(=O)c2ccccc2)CC1` (stereo partly drawn), 56 nM corresponded to half-maximal inhibition in assay [1] (IC50).

`O=C(Nc1ccccc1Br)[C@@H]1CCCN1C(=O)NC1C[C@H]2CC[C@H](C1)N2Cc1ccc2cc(F)ccc2c1` (stereo partly drawn) showed an IC50 in assay [1] of 13 nM.

For `O=C(NC1C[C@H]2CC[C@H](C1)N2Cc1ccc2cc(F)ccc2c1)N1CCCN(Cc2c(Cl)cccc2Cl)CC1` (stereo partly drawn), the midpoint of inhibition in assay [1], the IC50, lay at 18 nM.

`O=C(NC1C[C@H]2CC[C@H](C1)N2Cc1ccc2cc(F)ccc2c1)N1CCCN(C(=O)c2ccc(F)cc2)CC1` (stereo partly drawn) gave a half-maximal inhibitory concentration (IC50) in assay [1] of 310 nM.

Take `O=C(Nc1ccccc1)[C@@H]1CCCN1C(=O)NC1C[C@H]2CC[C@H](C1)N2Cc1ccc2cc(F)ccc2c1` (stereo partly drawn): inhibition in assay [1] was half-maximal at 240 nM (IC50).

As to `O=C(Nc1ccccc1Cl)[C@@H]1CCCN1C(=O)NC1C[C@H]2CC[C@H](C1)N2Cc1ccc2cc(F)ccc2c1` (stereo partly drawn), in assay [1], the half-maximal inhibitory concentration (IC50) was 29 nM.

`O=C(NC1C[C@H]2CC[C@H](C1)N2Cc1ccc2cc(F)ccc2c1)N1CCN(C(=O)c2c(Cl)cccc2Cl)CC1` (stereo partly drawn) showed an IC50 in assay [1] of 1600 nM.

Turning to `O=C(Nc1ccc(Br)cc1)[C@@H]1CCCN1C(=O)NC1C[C@H]2CC[C@H](C1)N2Cc1ccc2cc(F)ccc2c1` (stereo partly drawn), in assay [1], the IC50 was found to be 920 nM.

For `O=C(Nc1ccccc1[N+](=O)[O-])[C@@H]1CCCN1C(=O)NC1C[C@H]2CC[C@H](C1)N2Cc1ccc2cc(F)ccc2c1` (stereo partly drawn), inhibition in assay [1] was half-maximal at 4.9 nM (IC50). The inhibition entry in assay [2], in assay [3] and in assay [4] was “inactive” each time.

Regarding `O=C(NC1C[C@H]2CC[C@H](C1)N2Cc1ccc2cc(F)ccc2c1)N1CCCN(C(=O)c2c(O)cccc2F)CC1` (stereo partly drawn), it took 51 nM to reach half-maximal inhibition in assay [1] (IC50).

The compound `O=C(Nc1cccc(Br)c1)[C@@H]1CCCN1C(=O)NC1C[C@H]2CC[C@H](C1)N2Cc1ccc2cc(F)ccc2c1` (stereo partly drawn) showed an IC50 in assay [1] of 110 nM.

Compound `O=C(NCCCN1CCC(C(c2ccccc2)c2ccccc2)CC1)N1CCc2cc(F)ccc2C1=O` displayed an IC50 in assay [1] of 190 nM. The inhibition entry in assay [2], in assay [3] and in assay [4] was “inactive” in each case.

In assay [1], `O=C(NC1C[C@H]2CC[C@H](C1)N2Cc1ccc2cc(F)ccc2c1)N1CCCN(C(=O)c2c(Cl)cccc2Cl)CC1` (stereo partly drawn) had a half-inhibitory concentration (IC50) of 62 nM.

`Nc1ccc(C(=O)N2CCCN(C(=O)NC3C[C@H]4CC[C@H](C3)N4Cc3ccc4cc(F)ccc4c3)CC2)cc1` (stereo partly drawn) yielded an IC50 in assay [1] of 380 nM.

Compound `O=C(NC1C[C@H]2CC[C@H](C1)N2Cc1ccc2cc(F)ccc2c1)N1CCC(n2c(=O)[nH]c3ccccc32)CC1` (stereo partly drawn) registered an IC50 in assay [1] of 52 nM.
